Data set [1] is described as follows: Compatibility/stability of the aqueous composition. Particulars: heptanoic acid alone versus with sulfonate coupler. The data set is classed as physicochemical.
Data set [2] deals with Staphylococcus aureus ATCC 6538. The data set can be described thus: Sanitizing Efficacy/Germicidal and Detergent Sanitizing Action of Disinfectants. Particulars: summary of Table 7, heptanoic acid without coupler. The data set is classed as cell-based. As for the experimental part:
Sanitizing Efficacy/Germicidal and Detergent Sanitizing Action of Disinfectants—Final Action
This test measures the sanitizing efficacy against Staphylococcus aureus ATCC 6538 and Escherichia coli ATCC 11229 with a 10% milk challenge at a 15 second exposure time. A 10% milk challenge is achieved by adding 90 ml of the test formulation to 10 ml of milk, mixing, and removing 1 ml for a final volume of 99 ml.

Structures are written as SMILES.

In the case of `CCCCCCC(=O)O` [heptanoic acid], in data set [1], the “compatibility (stability) of the composition (in words)” value was “less compatibility”. For the same molecule, in data set [2], the “antimicrobial efficacy (in words)” value was “satisfactory antimicrobial efficacy”.

(Values after patent US20030206882A1, “Fatty acid sanitizer” (priority 2002, published 2003).)
